Experimental data published in patent publication US20180312542A1, “ENDOSOMAL ESCAPE PEPTIDES” (priority 2015, published 2018).

Experiments:
BSR.LNL.tdTomato cells [1] = assay: Primary screen for cytosolic delivery of Cre recombinase (tdTomato, fluorescence image analysis); format: cell-based, hamster; details: for level of recombination in primary screen: 250 nM peptide-(+36 GFP)-Cre conjugate; for cells expressing tdTomato (recombined cells): 250 nM protein, 4 h serum-free media, then 48 h, sortase-conjugated peptide or no peptide
Experimental: FIG. 2. Primary screen for cytosolic delivery of Cre recombinase in BSR.LNL.tdTomato cells. Initial screen of 20 peptide-(+36 GFP)-Cre conjugated proteins. Cytosolic Cre delivery results in recombination and tdTomato expression. The percentage of tdTomato positive cells was determined by fluorescence image analysis. […] Cells were treated with 250 nM protein for 4 hours in serum-free DMEM. Cells were washed and supplanted with full DMEM and incubated for 48 hours. Error bars represent the standard deviation of three independent biological replicates.
The ability of each peptide-(+36 GFP)-Cre recombinase fusion when added to culture media to effect recombination was assayed in BSR.LNL.tdTomato cells, a hamster kidney cell line derived from BHK-21 (FIG. 8). Because Cre recombinase must enter the cell, escape endosomes, enter the nucleus, and catalyze recombination to generate tdTomato fluorescence, this assay reflects the availability of active, non-endosomal recombinase enzyme that reaches the nucleus. […] See, e.g., Dijkstra at al. Biochimica et Biophysica Acta (BBA)-Molecular Cell Research 1984, 804, 58.
The reporter BSR.LNL.tdTomato cells were incubated with 250 nM of each peptide-(+36 GFP)-Cre protein in serum-free media.
BSR.LNL.tdTomato cells were plated at 10,000 cells per well in black 384-well plates (Aurora Biotechnologies). Cells were treated with Cre fusion proteins diluted in serum-free DMEM 24 hours after plating and incubated for 4 hours at 37° C. Following incubation, the cells were washed three times with PBS+20 U/mL heparin. The cells were incubated a further 48 h in serum-containing media. Cells were fixed in 3% paraformaldehyde and stained with Hoescht 33342 nuclear dye. Images were acquired on an ImageXpress Micro automated microscope (Molecular Devices) using a 4× objective (binning 2, gain 2), with laser- and image-based focusing (offset −130 μm, range ±50 μm, step 25 μm). Images were exposed for 10 ms in the DAPI channel (Hoechst) and 500 ms in the dsRed channel (tdTomato). Image analysis was performed using the cell-scoring module of MetaXpress software (Molecular Devices). All nuclei were detected with a minimum width of 1 pixel, maximum width of 3 pixels, and an intensity of 200 gray levels above background. Positive cells were evaluated for uniform signal in the dsRed channel (minimum width of 5 pixels, maximum width of 30 pixels, intensity >200 gray levels above background, 10 μm minimum stained area). In total, nine images were captured and analyzed per well, and 16 wells were treated with the same fusion protein. The primary screen was completed in biological triplicate.

BSR.LNL.tdTomato cells [2] = assay: ATP-dependent cell viability assay (CellTiterGlo) 48 h after treatment; format: cell-based, hamster; details: for viable cells: 1 μM treatment; for viability: 250 nM recombinant fusion
Experimental: FIGS. 3A-3B. Efficacy and toxicity of recombinant expression fusions of aurein 1.2 (“E”) and citropin 1.3 (“U”). (FIG. 3A) Cytosolic Cre delivery results in recombination and tdTomato expression. The percentage of tdTomato positive cells was determined by flow cytometry. Protein fusions were delivered at 125 nM, 250 nM, 500 nM, and 1 μM. (FIG. 3B) Toxicity of aurein 1.2 and citropin 1.3 as determined by CellTiterGlo (Promega) assay. Protein fusions were delivered at 125 nM, 250 nM, 500 nM, and 1 μM. […] Cells were treated with 250 nM protein for 4 hours in serum-free media. Cells were washed and supplanted with full DMEM and incubated for 48 hours. Error bars represent the standard deviation of three independent biological replicates.
Next, the toxicity of each fusion protein was evaluated at a range of concentrations (125 nM to 1 μM) using an ATP-dependent cell viability assay at 48 h after treatment. […] Applying 1 μM treatments decreased cell viability to 70% and 66%, respectively (FIG. 3B). In light of its activity and low cytotoxicity at 250 nM, the ability of aurein 1.2 to enhance cytosolic protein delivery was characterized in depth.
(§1) Uptake and delivery assays for Cre fusion proteins were performed as previously described. Briefly, proteins were diluted in serum-free DMEM and incubated on the cells in 48-well plates for 4 hours at 37° C. Following incubation, the cells were washed three times with PBS+20 U/mL heparin. The cells were incubated a further 48 hours in serum-containing media prior to trypsinization and analysis by flow cytometry. All flow cytometry were carried out on a BD Fortessa flow cytometer (Becton-Dickinson) using 530/30 nm and 610/20 nm filter sets. Toxicity for aurein 1.2 and citropin 1.3 validation assays was determined using CellTiterGlo assay (Promega) in 96-well plates following manufacturer protocol. Toxicity for alanine scan mutational analysis was determined with LIVE/DEAD fixable far-red dead cell stain (Life Technologies) with 635 nm laser and 670/30 nm filter.

[3] = tested on: cochlear hair cells and supporting cells of Cre reporter transgenic mice; assay: In vivo protein delivery of Cre recombinase into mouse neonatal cochleas; details: for cochlear cells survived as compared to +36 GFP-Cre treatment: scala media
Experimental: FIGS. 6A-6C. In vivo protein delivery of Cre recombinase into mouse neonatal cochleas. 0.4 μL of 50 μM+36 GFP-Cre or aurein 1.2-+36 GFP-Cre were injected into the scala media. (FIG. 6A) Five days after injection, cochlea were harvested. Inner hair cells (IHC), outer hair cells (OHC) and supporting cells in the sensory epithelium (SE) were imaged for the presence of tdTomato, which is only expressed following Cre-mediated recombination. Hair cells were labeled with antibodies against the hair-cell marker Myo7a. (FIG. 6B) To evaluate cytotoxicity, the number of outer hair cells and inner hair cells were measured by counting DAPI-stained cells. (FIG. 6C) The percentage of tdTomato positive cells, reflecting successful delivery of functional Cre recombinase, was determined by fluorescence imaging.
To evaluate the ability of aurein 1.2 to increase the efficacy of cationic protein delivery in vivo, proteins were delivered to the inner ear of Cre reporter transgenic mice that express tdTomato upon Cre-mediated recombination. This animal model was chosen due to its confined injection volume, the presence of well-characterized cell types, and the existence of genetic deafness models that would facilitate future studies of protein delivery to treat hearing loss.
Anesthetized postnatal day 2 (P2) mice were injected with 0.4 μL of 50 μM+36 GFP-Cre or aurein 1.2-+36 GFP-Cre solutions in the scala media to access the cochlear cells. Five days after injection, the cochleas were harvested for immunolabeling of inner ear cell markers and imaging for tdTomato florescence (FIG. 6A). Both the hair cells (Myo7a+) and supporting cells (Myo7a−) were evaluated for td Tomato signal. The total number of hair cells and supporting cells (by DAPI labeling) in the sensory epithelium (SE) was used to determine the relative toxicity of aurein 1.2-+36 GFP-Cre to the baseline treatment of +36 GFP-Cre ([…]).
P1-2 Gt(ROSA)26Sor^tm14(CAG-tdTomato)Hze mice were used for aurein 1.2-+36-GFP-Cre and +36-GFP-Cre injection. The Rosa26-tdTomato mice were from the Jackson Laboratory. Animals were used under protocols approved by the Massachusetts Eye & Ear Infirmary IACUC committee. Mice were anesthetized by hypothermia on ice. Cochleostomies were performed by making an incision behind the ear to expose the cochlea. Glass micropipettes held by a micromanipulator were used to deliver the complex into the scala media, which allows access to inner ear hair cells. The total delivery volume for every injection was 0.4 μL per cochlea and the release was controlled by a micromanipulator at the speed of 69 nL/min.
5 days after injection, the mice were sacrificed and cochlea were harvested by standard protocols. See, e.g., Sage et al. Science 2005, 307, 1114. For immunohistochemistry, antibodies against hair-cell markers (Myo7a) and supporting cells (Sox2) were used following a previously described protocol. To quantify the number of tdTomato positive cells after aurein 1.2-+36-GFP-Cre and +36-GFP-Cre, we counted the total number of inner and outer hair cells in a region spanning 100 μm in the apex, middle, and base turn of the cochlea.

BSR.LNL.tdTomato cells [4] = assay: Cre delivery assay of expressed fusion proteins (tdTomato, flow cytometry); format: cell-based, hamster; details: for overall recombination efficiency versus aurein 1.2: variant fused to +36 GFP-Cre, 250 nM; for recombination signal above that of +36 GFP-Cre: 250 nM expressed fusion protein; for recombination levels higher than that of +36 GFP-Cre alone: 1 μM expressed fusion protein
Experimental: FIGS. 3A-3B. Efficacy and toxicity of recombinant expression fusions of aurein 1.2 (“E”) and citropin 1.3 (“U”). […] The percentage of tdTomato positive cells was determined by flow cytometry. Protein fusions were delivered at 125 nM, 250 nM, 500 nM, and 1 μM. (FIG. 3B) Toxicity of aurein 1.2 and citropin 1.3 as determined by CellTiterGlo (Promega) assay. Protein fusions were delivered at 125 nM, 250 nM, 500 nM, and 1 μM. […] Cells were treated with 250 nM protein for 4 hours in serum-free media. Cells were washed and supplanted with full DMEM and incubated for 48 hours. Error bars represent the standard deviation of three independent biological replicates.
(§2) FIGS. 4A-4B. Activity and cytotoxicity of aurein 1.2 variants fused to +36 GFP-Cre. (FIG. 4A) The percentage of tdTomato positive cells was determined by flow cytometry. (FIG. 4B) Toxicity as determined by CellTiterGlo (Promega) assay. […] Cells were treated with 250 nM protein for 4 hours in serum-free DMEM. Cells were washed and supplanted with full DMEM and incubated for 48 hours.
Both aurein 1.2-+36 GFP-Cre and citropin 1.3-+36 GFP-Cre were cloned, expressed, and purified as fusion proteins.
To identify the residues involved in enhancing non-endosomal protein delivery, an alanine scan of the 13 amino acid positions of aurein 1.2 was performed by cloning, expressing, and purifying each alanine mutant of aurein 1.2-+36 GFP-Cre. The resulting fusion proteins were assayed in BSR.LNL.tdTomato reporter cells as described above (Table 2). […] In total, 19 mutants of aurein 1.2 were generated and tested using the Cre recombination assay.
as §1

BSR.LNL.tdTomato cells [5] = assay: Toxicity of aurein 1.2 variants fused to +36 GFP-Cre; format: cell-based, hamster; details: variant fused to +36 GFP-Cre, 250 nM
Experimental: as §2
To identify the residues involved in enhancing non-endosomal protein delivery, an alanine scan of the 13 amino acid positions of aurein 1.2 was performed by cloning, expressing, and purifying each alanine mutant of aurein 1.2-+36 GFP-Cre. The resulting fusion proteins were assayed in BSR.LNL.tdTomato reporter cells as described above (Table 2). Seven positions were moderately to highly intolerant of alanine substitution. Six positions retained >70% of the activity of unmutated aurein 1.2-+36 GFP-Cre (FIG. 4A). […]
Uptake and delivery assays for Cre fusion proteins were performed as previously described. […] Toxicity for aurein 1.2 and citropin 1.3 validation assays was determined using CellTiterGlo assay (Promega) in 96-well plates following manufacturer protocol. Toxicity for alanine scan mutational analysis was determined with LIVE/DEAD fixable far-red dead cell stain (Life Technologies) with 635 nm laser and 670/30 nm filter.

BSR.LNL.tdTomato cells [6] = assay: Delivery efficiency of aurein 1.2 in trans with +36 GFP-Cre (Cre recombination, flow cytometry); format: cell-based, hamster; details: 125-500 nM +36 GFP-Cre mixed with aurein 1.2 (1-100 μM) or aurein 1.2-+36 GFP (125-500 nM)
Experimental: Determining the delivery efficiency of aurein 1.2 in trans with +36 GFP-Cre. 125 nM, 250 nM, or 500 nM+36 GFP-Cre was mixed with either aurein 1.2-+36 GFP (125 nM, 250 nM, 500 nM) or with aurein 1.2 (1 μM, 10 μM, 100 μM), then assayed for Cre-mediated recombination as measured by tdTomato signal during flow cytometry. […] The expressed fusion aurein 1.2-+36 GFP-Cre protein at 125 nM, 250 nM, or 500 nM was used as the positive control.
To test this possibility, we assayed functional Cre recombinase delivery of +36 GFP-Cre mixed with aurein 1.2, or mixed with aurein 1.2-+36 GFP fusion protein lacking Cre at various concentrations (FIG. 9).

[7] = middle, 0.4 μL of 50 μM, 5 days

GLFDIIKKVASVIGGL [citropin 1.3]
level of recombination in primary screen (BSR.LNL.tdTomato cells [1]): moderate level of recombination

+36 GFP-Cre: superpositively charged GFP fused to Cre recombinase, SEQ ID NO: 76; no-peptide control [reference compound]
viable cells (BSR.LNL.tdTomato cells [2]): 85% | cells expressing tdTomato (recombined cells) (BSR.LNL.tdTomato cells [1]): 4.5% | recombination in middle or base cochlear hair cells or cochlear supporting cells ([3]; 0.4 μL of 50 μM, 5 days): not in the middle or base of the cochlear hair cells or any cochlear supporting cells | Cre-mediated recombination, inner hair cells (IHC) ([3]; apex, 0.4 μL of 50 μM, 5 days): 4.4%

GLFDIIKKIAEAF [S12A, aurein 1.2 variant, expressed as recombinant fusion protein with +36 GFP-Cre]
overall recombination efficiency versus aurein 1.2 (BSR.LNL.tdTomato cells [4]): potentially improved | toxicity versus aurein 1.2 (BSR.LNL.tdTomato cells [5]): increased toxicity

aurein 1.2-+36 GFP-Cre: fusion protein of aurein 1.2, +36 GFP and Cre recombinase, SEQ ID NO: 77
viability (BSR.LNL.tdTomato cells [2]): 87% | viable cells (BSR.LNL.tdTomato cells [2]): 70% | cells expressing tdTomato (recombined cells) (BSR.LNL.tdTomato cells [1]): 40% | Cre-mediated recombination, inner hair cells (IHC) ([3]; apex, 0.4 μL of 50 μM, 5 days): 100% | Cre-mediated recombination, outer hair cells (OHC) ([3]; apex, 0.4 μL of 50 μM, 5 days): 96% | cochlear cells survived as compared to +36 GFP-Cre treatment ([3]; apex, 0.4 μL of 50 μM, 5 days): 96% | Cre-mediated recombination, inner hair cells (IHC) ([3]; base, 0.4 μL of 50 μM, 5 days): 70% | Cre-mediated recombination, outer hair cells (OHC) ([3]; base, 0.4 μL of 50 μM, 5 days): 69% | cochlear cells survived as compared to +36 GFP-Cre treatment ([3]; base, 0.4 μL of 50 μM, 5 days): 66% | Cre-mediated recombination, inner hair cells (IHC) [3, 7]: 94% | Cre-mediated recombination, outer hair cells (OHC) [3, 7]: 91% | cochlear cells survived as compared to +36 GFP-Cre treatment [3, 7]: 92% | recombination signal above that of +36 GFP-Cre (BSR.LNL.tdTomato cells [4]): 10.4 fold | recombination levels higher than that of +36 GFP-Cre alone (BSR.LNL.tdTomato cells [4]): 3.8 fold

GLFDIIKRIAESF [K8R, aurein 1.2 variant, expressed as recombinant fusion protein with +36 GFP-Cre]
overall recombination efficiency versus aurein 1.2 (BSR.LNL.tdTomato cells [4]): potentially improved | toxicity versus aurein 1.2 (BSR.LNL.tdTomato cells [5]): increased toxicity

citropin 1.3-+36 GFP-Cre: fusion protein of citropin 1.3, +36 GFP and Cre recombinase, SEQ ID NO: 78
viability (BSR.LNL.tdTomato cells [2]): 84% | viable cells (BSR.LNL.tdTomato cells [2]): 66% | recombination signal above that of +36 GFP-Cre (BSR.LNL.tdTomato cells [4]): did not induce any enhanced Cre delivery | recombination levels higher than that of +36 GFP-Cre alone (BSR.LNL.tdTomato cells [4]): 3.0 fold

CCN(CC)CCCC(C)Nc1ccnc2cc(Cl)ccc12 (stereo not shown) [chloroquine, reference compound]
recombined cells (BSR.LNL.tdTomato cells [1]; 250 nM +36 GFP-Cre incubated with 100 μM chloroquine (positive control)): 48%

GLFDIIKKIAESF [aurein 1.2]
effect on functional delivery of +36 GFP-Cre when added in trans (BSR.LNL.tdTomato cells [6]): did not affect | level of recombination in primary screen (BSR.LNL.tdTomato cells [1]): highest level of recombination | potency of Cre delivery into cochlear hair cells when fused with aurein 1.2 versus absence of the peptide ([3]; live mice, inner ear): > 20 fold
